# In the NIST ThermoML archive (doi:10.1016/j.jct.2015.12.019):
# ± gives the expanded uncertainty stated by the source.
# Test: refractive index (Na D-line) (dimensionless)
# Details: 303.15 K; 101.33 kPa; Liquid; Standard Abbe refractometry
row,refractive index,Compound
1,1.3913 ± 0.018,CC(C)C(=O)O [2-methylpropanoic acid]
2,1.3844 ± 0.018,CCCCCCC [heptane]
3,1.4815 ± 0.018,O=S1(=O)CCCC1 [sulfolane]
